Data: US20040063783A1, “Nitroso diphenylamine derivatives” (priority 2003, published 2004)

Key:
Type in all cases: biochemical
[1] = Spontaneous nitric oxide release: nitrites+nitrates titrated by colorimetry (Griess reagent, nitrate reductase); settings: test product final concentration 150 μM; 4 hours at 37° C; pH 7.5 PBS buffer; optical density at 540 nm
Description: A solution of a compound of the invention spontaneously releases nitric oxide. The nitrite ions resulting therefrom are titrated by colorimetry by means of a specific reagent (Griess). To take account of any release of nitrate ions in addition to the nitrite ions, bacterial nitrate reductase is added to the reaction medium to allow the nitrate ions formed to be reduced.
The reactions and measurements are carried out in transparent 96-well plates. The test products are dissolved at the time of use to a concentration of 3 mM in dimethyl sulfoxide. 95 μl of a reagent containing nitrate reductase (0.18U/ml in 100 mM pH 7.5 PBS buffer, 210 μM β-NADPH, 5 μM FAD) and 5 μl of a solution of the test product (final concentration of 150 μM) are then added to each well. After stirring, the mixture is left to incubate for 4 hours at 37° C. The reaction is then quenched by addition of 100 μl of the Griess reagent (Sigma G4410). The reagent is allowed to act for 5 minutes at room temperature and the optical density is then read at 540. nm. This value is proportional to the concentration of nitrites+nitrates in the medium. A calibration range is made for each plate using NaNO2.
The results are expressed as […] (μM) of nitrites+nitrates released, in Table 5 below.

Human LDLs = experiment: Oxidation of human LDL in the presence of cupric ion (fluorescence), antioxidant effect; settings: human LDL 120 μg/ml, 100 μM CuCl2; difference of fluorescence readings at 2 h and 24 h, 37° C; from 3 product concentrations
Description: Human LDLs dissolved in aqueous solution in the presence of cupric ion become spontaneously oxidized on their protein component, apolipoprotein B. This oxidation makes the particle fluorescent, which is exploited to measure a pharmacological effect.
The reactions and measurements are carried out in black 96-well plates, 10 μl of a solution of the test product dissolved in dimethyl sulfoxide are first mixed with 170 μl of a solution of human LDL at 120 μg/ml and 20 μl of 100 μM CuCl2. After stirring, the mixture is left to incubate for 2 hours at 37° C., and a first fluorescence reading is taken (excitation at 360 nm, reading at 460 nm). The mixture is then left to incubate for a further 22 hours, to take a second reading under the same conditions. The difference between the two values obtained is the measurement of the oxidation of the LDLs in solution. This difference is proportionately smaller the greater the antioxidant power of the test product. Probucol is used as reference product at 10 μM.
The concentrations which inhibit the oxidation by 50% (IC50) are produced from 3 product concentrations.

[2] = tested on: human low molecular weight lipoproteins; experiment: Prevention of cupric-ion oxidation of human low molecular weight lipoproteins (apoprotein B fluorescence), compounds of the formula II; settings: lipoproteins oxidized with cupric ions for 24 hours at 37° C, fluorescence excitation 360 nm, emission 460 nm
Description: In the test carried out, the human low molecular weight lipoproteins are oxidized with cupric ions for 24 hours at 37° C. The B apoprotein bome by these lipoproteins becomes fluorescent on oxidation (excitation at 360 nm, emission at 460 nm). In the presence of the compounds of the formula II, a decrease in fluorescence is noted, which reflects the antioxidant power of the compounds of the formula II. The results are expressed in the form of a 50% inhibitory concentration (IC50).

Row | Nitrates + nitrites [1] | IC50 (Human LDLs) | IC50 [2] | Compound
1 |  |  | 12.3 µM | CC(=O)Nc1ccc(S(=O)(=O)Nc2ccc(Nc3ccccc3)cc2)cc1 [T=H, X=H, A=SO2, Y=4-CH3CONH—C6H4—]
2 |  |  | 3.3 µM | O=S(=O)(Nc1ccc(Nc2ccccc2)cc1)c1cccs1 [T=H, X=H, A=SO2, Y=2-thienyl]
3 |  |  | 4.8 µM | CC(C)(C)c1cc(CC(=O)Nc2ccc(Nc3ccccc3)cc2)ccc1O
4 |  |  | 1.8 µM | CSc1ccc(Nc2ccc(NC(=O)c3ccccc3)cc2)cc1 [T=4-MeS—, X=H, A=CO, Y=C6H5]
5 |  |  | 5 µM | COc1ccc(Nc2ccc(NS(=O)(=O)c3ccc(OC)cc3)cc2)cc1 [T=4-MeO—, X=H, A=SO2, Y=4-MeO—C6H4—]
6 |  |  | 11.8 µM | N#Cc1ccc(S(=O)(=O)Nc2ccc(Nc3ccccc3)cc2)cc1 [T=H, X=H, A=SO2, Y=4-CN—C6H4]
7 |  |  | 7.4 µM | O=S(=O)(Nc1ccc(Nc2ccccc2)cc1)c1cccnc1 [T=H, X=H, A=SO2, Y=3-pyridyl]
8 |  |  | 8.7 µM | COc1ccc(Nc2ccc(NS(=O)(=O)c3cccc4cccnc34)cc2)cc1
9 | 109 µM | 8.9 µM |  | O=NN(c1ccccc1)c1ccc(NC(=O)c2cccnc2)cc1 [Example 57]
10 |  |  | 13.4 µM | CC(=O)Nc1ccc(S(=O)(=O)Nc2ccc(Nc3ccccc3)cc2)cc1Cl [T=H, X=H, A=SO2, Y=3-Cl,4-CH3CONH—C6H3—]
11 |  |  | 4.3 µM | O=[N+]([O-])c1ccc(S(=O)(=O)Nc2ccc(Nc3ccccc3)cc2)cc1 [T=H, X=H, A=SO2, Y=4-NO2—C6H4]
12 |  |  | 3.7 µM | O=S(=O)(Nc1ccc(Nc2ccccc2)cc1)c1cccc(F)c1 [T=H, X=H, A=SO2, Y=3-F—C6H4—]
13 |  |  | 3.8 µM | COc1ccc(Nc2ccc(NC(=O)c3cccnc3)cc2)cc1 [T=4-MeO—, X=H, A=CO, Y=3-pyridyl]
14 |  |  | 7.9 µM | COc1ccc(Nc2ccc(NS(=O)(=O)c3cccnc3)cc2)cc1 [T=4-Me—O—, X=H, A=SO2, Y=3-pyridyl]

The remaining lines, values behind:

Row | Compound | Nitrates + nitrites [1] | IC50 (Human LDLs) | IC50 [2]
15 | COc1ccc(N(N=O)c2ccc(NC(=O)c3cccc([N+](=O)[O-])c3)cc2)cc1 [Example 18] | 71 µM | 3.7 µM | 
16 | O=S(=O)(/C=C/c1ccccc1)Nc1ccc(Nc2ccccc2)cc1 |  |  | 12.2 µM
17 | O=NN(c1ccccc1)c1ccc(NS(=O)(=O)c2ccccc2)cc1 [Example 45] | 62 µM | 3.2 µM | 
18 | COc1ccc(Nc2ccc(NC(=O)OCc3ccccc3)cc2)cc1 [253 (formula II), Benzyl 4-[(4-methoxyphenyl)amino]phenylcarbamate] |  |  | 2 µM
19 | COc1ccc(N(N=O)c2ccc(NC(=O)c3ccc(C#N)cc3)cc2)cc1 [Example 12] | 22 µM | 2.2 µM | 
20 | COc1ccc(Nc2ccc(NC(=O)c3ccc[n+]([O-])c3)cc2)cc1 |  |  | 10.5 µM
21 | COc1ccc(N(N=O)c2ccc(NS(=O)(=O)c3ccc(OC)cc3)cc2)cc1 [Example 86] | 79 µM | 3.8 µM | 
22 | COc1ccc(Nc2ccc(NC(=O)c3cnc(Cl)nc3)cc2)cc1 |  |  | 2.6 µM
23 | COc1ccc(Nc2ccc(NC(=O)c3cc(Cl)cnc3Cl)cc2)cc1 |  |  | 5.4 µM
24 | COc1ccc(Nc2ccc(NC(=O)c3sc(S(C)(=O)=O)c4c3CCC=C4)cc2)cc1 |  |  | 7.3 µM
25 | COc1ccc(Nc2ccc(NC(=O)c3cc(C(C)(C)C)c(O)c(C(C)(C)C)c3)cc2)cc1 |  |  | 9.4 µM
26 | O=NN(c1ccccc1)c1ccc(NS(=O)(=O)c2cccnc2)cc1 [Example 6] | 83 µM | 6.5 µM | 
27 | COc1ccc(Nc2ccc(NC(=O)c3cc([N+](=O)[O-])ccc3Oc3ccc(OC)cc3)cc2)cc1 |  |  | 8.8 µM
28 | COc1ccc(Nc2ccc(NC(=O)c3cncnc3)cc2)cc1 [T=4-Me—O—, X=H, A=CO, Y=5-pyrimidyl, 4-methoxy4′-[5-pyrimidinylcarbonylamino]diphenylamine] |  |  | 5.2 µM
29 | COc1ccc(Nc2ccc(NC(=O)Cc3cc(C(C)(C)C)c(O)c(C(C)(C)C)c3)cc2)cc1 |  |  | 2.8 µM
30 | CCn1nc(C)cc1C(=O)Nc1ccc(Nc2ccc(OC)cc2)cc1 |  |  | 8.3 µM
31 | COc1ccc(N(N=O)c2ccc(NC(=O)c3cncnc3)cc2)cc1 [Example 4] | 84 µM | 5.4 µM | 
32 | COc1ccc(N(N=O)c2ccc(NC(=O)c3cccnc3)cc2)cc1 [Example 1, N-nitroso[4-methoxyphenyl][4-(3-pyridylcarbonylamino)phenyl]amine] | 97 µM | 6.4 µM | 
33 | COc1ccc(Nc2ccc(NC(=O)c3cc4cccc(OC)c4oc3=O)cc2)cc1 |  |  | 8.7 µM
34 | COc1ccc(N(N=O)c2ccc(NC(=O)OCc3ccccc3)cc2)cc1 [Example 253, Benzyl 4-[1-(4-methoxyphenyl)-2-oxohydrazino]phenylcarbamate] | 45 µM | 3.6 µM | 
35 | COc1ccc(Nc2ccc(NC(=O)/C=C/c3ccccc3[N+](=O)[O-])cc2)cc1 |  |  | 13.3 µM
36 | COc1ccc(Nc2ccc(NC(=O)c3cccc([N+](=O)[O-])c3)cc2)cc1 [T=4-Me—O—, X=H, A=CO, Y=3-NO2—C6H4—] |  |  | 6.5 µM
37 | O=NN(c1ccccc1)c1ccc(NC(=O)Nc2ccccc2)cc1 [Example 8] | 44 µM | 5.4 µM | 
38 | CCCCCCc1ccc(C(=O)Nc2ccc(Nc3ccc(OC)cc3)cc2)s1 |  |  | 11.1 µM
39 | CC(C)(Sc1cc(C(C)(C)C)c(O)c(C(C)(C)C)c1)Sc1cc(C(C)(C)C)c(O)c(C(C)(C)C)c1 [Probucol, reference compound] |  | 6.4 µM | 
40 | COc1ccc(Nc2ccc(NC(=O)c3cccnc3Oc3ccc(Cl)cc3)cc2)cc1 |  |  | 3.6 µM
41 | COc1ccc(Nc2ccc(NC(=O)c3cccc(C(F)(F)F)c3)cc2)cc1 [T=4-MeO—, X=H, A=CO, Y=3-CF3—C6H4—] |  |  | 6.4 µM
42 | COc1ccc(Nc2ccc(NC(=O)c3ccco3)cc2)cc1 [T=4-MeO—, X=H, A=CO, Y=2-furyl] |  |  | 8.4 µM
43 | COc1ccc(Nc2ccc(NC(=O)c3ccc(N(C)C)cc3)cc2)cc1 [T=4-MeO—, X=H, A=CO, Y=4-(CH3)2N—C6H4—] |  |  | 11.2 µM
